Results published in patent US8158670B2 (priority 1996, dated 2012).
Read-outs that look alike come from different tables or passages of the source.

Experiments:
[1] = system: Vascular smooth muscle (BO54) cells; type: cell-based, baboon; settings: 5 minute exposure
[2] = system: Vascular smooth muscle (BO54) cells; type: cell-based, baboon; settings: 5 minute exposure; remark: listed apart in the source
[3] = system: vascular smooth muscle cells of balloon-traumatized arteries; type: in vivo, pig; settings: relative to a PBS control
[4] = system: vascular smooth muscle cells
[5] = pig, in vivo
[6] = system: Vascular smooth muscle cells (BO54); assay: Scratch-migration assay; type: cell-based, baboon; set-up: key: −=no toxicity; +1=minimal; +2=mild; +3=moderate; +4=marked toxicity; settings: Continuous Exposure, 1.0 μg/mL
Experimental: (§1) Vascular smooth muscle cells (BO54) were derived from explants of baboon aortic smooth muscle, as described in Example 10. The cells were grown in flat bottom, six well tissue culture plates, which hold about 5 ml of medium. The vascular smooth muscle cells were plated at 200,000 cells/well and placed at 37° C. in a humidified 5% CO2 incubator for 18 hours. The wells were then scratched with a sterile portion of a single edge razor blade that was held by clamp or pliers and was brought aseptically into contact with the bottom of the well at a 90° angle. The cells from a small area along the scratch were removed by a sterile cotton tipped applicator while the blade was in contact with the bottom of the well. After incubation, the presence of cells in the “scratched” area is indicative of cell migration across the scratch line.
Briefly, a stock solution of cytochalasin B (Sigma Chemical Co.) in dimethyl sulfoxide (DMSO) at 1 mg/ml was prepared. […]
In this Table, “M” indicates Migration Grade. wherein −=no migration; +1=minimal; +2=mild; +3=moderate; and +4=marked (maximum density; limit of cell contact inhibition) migration of vascular smooth muscle cells into the cleared area adjacent to the scratch. […] The migration results are expressed as “Grade in the Cleared Area of the Well/Grade in an Undisturbed Region of the Well.” The toxicity values represent a grade for all cells in each well.

[7] = system: Vascular smooth muscle cells (BO54); assay: Scratch-migration assay; type: cell-based, baboon; set-up: key: −=no migration; +1=minimal; +2=mild; +3=moderate; +4=marked (maximum density; limit of cell contact inhibition) migration
Experimental: as §1
Briefly, a stock solution of cytochalasin B (Sigma Chemical Co.) in dimethyl sulfoxide (DMSO) at 1 mg/ml was prepared. Test dilutions of cytochalasin B or control medium were added. Each experiment included two sets of plates:
A set: Test agent exposure for 1, 3, 6, 8 and 10 days only; and
B set: Test agent exposure for 1, 3, 6, 8 and 10 days, followed by a seven day recovery time with control medium.
Both sets of plates were fixed (10% formalin in PBS) and stained (0.02% crystal violet) at the end of the timed exposures. Test concentrations for cytochalasin B were 1, 0.1 and 0.01 μg/ml, and a negative medium control was included. Fresh medium and drug were supplied 3 times per week.
In this Table, “M” indicates Migration Grade. wherein −=no migration; +1=minimal; +2=mild; +3=moderate; and +4=marked (maximum density; limit of cell contact inhibition) migration of vascular smooth muscle cells into the cleared area adjacent to the scratch. In this Table, “T” denotes a morphological Toxicity Grade, wherein −=no toxicity; +1=minimal; +2=mild; +3=moderate; and +4=marked toxicity. The migration results are expressed as “Grade in the Cleared Area of the Well/Grade in an Undisturbed Region of the Well.” The toxicity values represent a grade for all cells in each well.

## C=C1[C@@H](C)[C@H]2[C@H](Cc3ccccc3)NC(=O)[C@]23OC(=O)/C=C/[C@H](O)CCC[C@@H](C)C/C=C/[C@H]3[C@@H]1O [cytochalasin B]
[1]
  minimum effective dose (MED): 10 µg/mL
[2]
  minimum effective dose (MED): 10 µg/mL
[3]
  BRDU uptake (cell proliferation): inhibited BRDU uptake (i.e., cell proliferation) without killing the vascular smooth muscle cells
[4]; 5 min + 24 hrs, 0.1 ug
  morphological cytotoxicity grade: 0
[4]; 5 min + 24 hrs, 1 ug
  morphological cytotoxicity grade: 0.5
[4]; 5 min + 24 hrs, 10 ug
  morphological cytotoxicity grade: 4
[4]; 5 min + 48 hrs, 0.1 ug
  morphological cytotoxicity grade: 0
[4]; 5 min + 48 hrs, 1 ug
  morphological cytotoxicity grade: 1
[4]; 5 min + 48 hrs, 10 ug
  morphological cytotoxicity grade: 4
[4]; 5 min + 72 hrs, 0.1 ug
  morphological cytotoxicity grade: 0
[4]; 5 min + 72 hrs, 1 ug
  morphological cytotoxicity grade: 1
[4]; 5 min + 72 hrs, 10 ug
  morphological cytotoxicity grade: 4.5
[4]; 5 min + 96 hrs, 0.1 ug
  morphological cytotoxicity grade: 0
[4]; 5 min + 96 hrs, 1 ug
  morphological cytotoxicity grade: 1
[4]; 5 min + 96 hrs, 10 ug
  morphological cytotoxicity grade: 5
[4]; 5 min + 120 hrs, 0.1 ug
  morphological cytotoxicity grade: 0
[4]; 5 min + 120 hrs, 1 ug
  morphological cytotoxicity grade: 1
[4]; 5 min + 120 hrs, 10 ug
  morphological cytotoxicity grade: 5
[4]; 24 hrs + 24 hrs, 0.01 ug
  morphological cytotoxicity grade: 0
[4]; 24 hrs + 24 hrs, 0.1 ug
  morphological cytotoxicity grade: 0.5
[4]; 24 hrs + 24 hrs, 1 ug
  morphological cytotoxicity grade: 3
[4]; 24 hrs + 48 hrs, 0.01 ug
  morphological cytotoxicity grade: 0
[4]; 24 hrs + 48 hrs, 0.1 ug
  morphological cytotoxicity grade: 1
[4]; 24 hrs + 48 hrs, 1 ug
  morphological cytotoxicity grade: 4
[4]; 24 hrs + 72 hrs, 0.01 ug
  morphological cytotoxicity grade: 0
[4]; 24 hrs + 72 hrs, 0.1 ug
  morphological cytotoxicity grade: 0.5
[4]; 24 hrs + 72 hrs, 1 ug
  morphological cytotoxicity grade: 4
[4]; 24 hrs + 96 hrs, 0.01 ug
  morphological cytotoxicity grade: 0
[4]; 24 hrs + 96 hrs, 0.1 ug
  morphological cytotoxicity grade: 0
[4]; 24 hrs + 96 hrs, 1 ug
  morphological cytotoxicity grade: 4
[4]; 24 hrs + 120 hrs, 0.01 ug
  morphological cytotoxicity grade: 0
[4]; 24 hrs + 120 hrs, 0.1 ug
  morphological cytotoxicity grade: 0
[4]; 24 hrs + 120 hrs, 1 ug
  morphological cytotoxicity grade: 4
[4]; Continuous 6 hrs, 0.01 ug
  morphological cytotoxicity grade: 0
[4]; Continuous 6 hrs, 0.1 ug
  morphological cytotoxicity grade: 0
[4]; Continuous 6 hrs, 1 ug
  morphological cytotoxicity grade: 3
[4]; Continuous 24 hrs (first listing, r16), 0.01 ug
  morphological cytotoxicity grade: 0
[4]; Continuous 24 hrs (first listing, r16), 0.1 ug
  morphological cytotoxicity grade: 1
[4]; Continuous 24 hrs (first listing, r16), 1 ug
  morphological cytotoxicity grade: 3
[4]; Continuous 24 hrs (second listing, r22), 0.01 ug
  morphological cytotoxicity grade: 0
[4]; Continuous 24 hrs (second listing, r22), 0.1 ug
  morphological cytotoxicity grade: 0
[4]; Continuous 24 hrs (second listing, r22), 1 ug
  morphological cytotoxicity grade: 3
[4]; Continuous 48 hrs, 0.01 ug
  morphological cytotoxicity grade: 0
[4]; Continuous 48 hrs, 0.1 ug
  morphological cytotoxicity grade: 1
[4]; Continuous 48 hrs, 1 ug
  morphological cytotoxicity grade: 3
[5]
  incidence of mural microthrombi: decreased
  lumen area of test region versus normal control segment of the same artery: approximately two times as large
  luminal area versus other test agents or controls: larger luminal area
  percent change in treated vs. normal luminal area (increase): ≈ 140%
  toxicity to the vascular smooth muscle cells: appeared to be toxic to the vascular smooth muscle cells
  ± percent change in treated vs. normal luminal area: ≈ 20%
[6]; Day 8
  morphological Toxicity Grade: +4
[6]; Day 10
  morphological Toxicity Grade: +4
[7]; Day 3, Continuous Exposure, 1.0 μg/mL
  morphological Toxicity Grade: +3
[7]; Day 3 exposure, 7-day Recovery Post Exposure, 1.0 μg/mL
  morphological Toxicity Grade: +1
[7]; Day 6, Continuous Exposure, 0.1 μg/mL
  morphological Toxicity Grade: +1
[7]; Day 6 exposure, 7-day Recovery Post Exposure, 1.0 μg/mL
  morphological Toxicity Grade: +3
[7]; Day 8, Continuous Exposure, 0.1 μg/mL
  morphological Toxicity Grade: +1
[7]; Day 8 exposure, 7-day Recovery Post Exposure, 1.0 μg/mL
  morphological Toxicity Grade: +3
[7]; Day 10, Continuous Exposure, 0.1 μg/mL
  morphological Toxicity Grade: +1
[7]; Day 10 exposure, 7-day Recovery Post Exposure, 1.0 μg/mL
  morphological Toxicity Grade: +3
